Source: US20130317045A1, “THIENOPYRIDINE AND THIENOPYRIMIDINE COMPOUNDS AND METHODS OF USE THEREOF” (AMBIT BIOSCIENCES CORPORATION, priority 2010, published 2013)
Where two headings read alike, the source gives them in different places.

Legend:
[1] = tested on: GM-CSFR/JAK2/STAT5 pathway in CSTF-1 cells; experiment: CSTF-1 cell-based reporter assay (beta-lactamase, GM-CSF stimulated); parameters: species or system human; details: GM-CSF at 2 ng/mL, 4 hours, read-out: Cell Assay: CS TF-1 reporter assay IC50
Experimental: CSTF-1 Cell-Based Reporter Assay
CSTF-1 cells are derived from the human erythroleukemia cell line that is growth dependent on GM-CSF and has an intact GM-CSFR/JAK2/STAT5 pathway. The cell line contains stably integrated beta-lactamase reporter gene under the control of the […] (irf 1) response element recognized by the activated transcription factor STATS. csTF-1 cells (Invitrogen K1219) were washed with assay media (97% OPTIMEM/ 0.5% dialyzed FBS/0.1 mM NEAA/1 mM Na pyr/P/S) and seeded in the same media at 5×10^5 cell/mL in T150 flask. After 16 hour incubation, cells were seeded at 2×10^5 cell/well in 50 μl volume, into Costar, clear bottom, 96-well assay plates. Serial dilutions of compounds were added to the plates with final DMSO concentration at 0.5% and GM-CSF at 2 ng/mL and the plates were then incubated at […] and 5% CO2 for 4 hours. The plates were brought to room temperature before adding Substrate Mixture according to manufacturer's protocol (Invitrogen, Catalog #K1085). The assay plates containing the substrate mixture were incubated in the dark at room temperature for 2 hours. Blue and green fluorescence was measured with excitation at 409 nm and emission at 460 nm (for blue) and excitation at 409 nm and emission at 530 nm (for green) using Spectra Max Gemini EM.

TYK2 = biological target: T1, TYK2 (Homo sapiens, UniProt P29597); experiment: Competition binding assay, TYK2
T1 construct: made in house
Excerpt: (§1) Competition Binding Assay to Determine Binding Constants (Kd) of the Compounds Against JAK Kinases
(§2) Competition binding assays used herein were developed, validated and performed as described in Fabian et al., Nature Biotechnology 2005, 23,329-336. Kinases were produced as fusions to T7 phage (See, Fabian et al. or WO04/015142) or alternatively, the kinases were expressed in HEK-293 cells and subsequently tagged with DNA for PCR detection (See, WO08/005310). For the binding assays, streptavidin-coated magnetic beads were treated with biotinylated affinity ligands for 30 min at rt to generate affinity resins. The liganded beads were blocked with excess biotin and washed with blocking buffer (SeaBlock (Pierce), 1% BSA, 0.05% Tween 20, 1 mM DTT) to remove unbound ligand and to reduce non-specific binding. Binding reactions were assembled by combining kinase, liganded affinity beads, and test compounds in 1× binding buffer (20% SeaBlock, 0.17×PBS, 0.05% Tween 20, 6 mM DTT). Test compounds were prepared as 100× stocks in DMSO and rapidly diluted into the aqueous environment. DMSO was added to control assays lacking a test compound. Primary screen interactions were performed in polypropylene 384-well plates in a final volume of 34 μL, while Kd determinations were performed in polystyrene 96-well plates in a final volume of 135 μL. The assay plates were incubated at room temperature with shaking for 1 hour, long enough for binding reactions to reach equilibrium, and the affinity beads were washed extensively with wash buffer (1× PBS, 0.05% Tween 20) to remove unbound protein. The beads were then resuspended in elution buffer (1× PBS, 0.05% Tween 20, 2 μM non-biotinylated affinity ligand) and incubated at room temperature with shaking for 30 min. The kinase concentration in the eluates was measured by quantitative PCR. Each kinase was tested individually against each compound. Kds were determined using eleven serial threefold dilutions. A selectivity score, which is a quantitative measure of selectivity of a compound against a panel of enzymes, may be calculated for a compound by dividing the number of enzymes for which a compound meets a set criteria, (for example, a binding constant of 100 nM or less), by the total number of enzymes tested.

[2] = tested on: distinct kinases tested excluding mutant variants, typically 359 or 386 kinases; experiment: Kinase selectivity score from competition binding panel; details: compound at 10 μM; fraction of kinases with inhibition of 90% or greater
Experimental: as §2

JAK3 = biological target: T2, JAK3 (Homo sapiens, UniProt P52333); experiment: Competition binding assay, JAK3
T2 construct: made in house
T2 sequence (P52333 1-1124): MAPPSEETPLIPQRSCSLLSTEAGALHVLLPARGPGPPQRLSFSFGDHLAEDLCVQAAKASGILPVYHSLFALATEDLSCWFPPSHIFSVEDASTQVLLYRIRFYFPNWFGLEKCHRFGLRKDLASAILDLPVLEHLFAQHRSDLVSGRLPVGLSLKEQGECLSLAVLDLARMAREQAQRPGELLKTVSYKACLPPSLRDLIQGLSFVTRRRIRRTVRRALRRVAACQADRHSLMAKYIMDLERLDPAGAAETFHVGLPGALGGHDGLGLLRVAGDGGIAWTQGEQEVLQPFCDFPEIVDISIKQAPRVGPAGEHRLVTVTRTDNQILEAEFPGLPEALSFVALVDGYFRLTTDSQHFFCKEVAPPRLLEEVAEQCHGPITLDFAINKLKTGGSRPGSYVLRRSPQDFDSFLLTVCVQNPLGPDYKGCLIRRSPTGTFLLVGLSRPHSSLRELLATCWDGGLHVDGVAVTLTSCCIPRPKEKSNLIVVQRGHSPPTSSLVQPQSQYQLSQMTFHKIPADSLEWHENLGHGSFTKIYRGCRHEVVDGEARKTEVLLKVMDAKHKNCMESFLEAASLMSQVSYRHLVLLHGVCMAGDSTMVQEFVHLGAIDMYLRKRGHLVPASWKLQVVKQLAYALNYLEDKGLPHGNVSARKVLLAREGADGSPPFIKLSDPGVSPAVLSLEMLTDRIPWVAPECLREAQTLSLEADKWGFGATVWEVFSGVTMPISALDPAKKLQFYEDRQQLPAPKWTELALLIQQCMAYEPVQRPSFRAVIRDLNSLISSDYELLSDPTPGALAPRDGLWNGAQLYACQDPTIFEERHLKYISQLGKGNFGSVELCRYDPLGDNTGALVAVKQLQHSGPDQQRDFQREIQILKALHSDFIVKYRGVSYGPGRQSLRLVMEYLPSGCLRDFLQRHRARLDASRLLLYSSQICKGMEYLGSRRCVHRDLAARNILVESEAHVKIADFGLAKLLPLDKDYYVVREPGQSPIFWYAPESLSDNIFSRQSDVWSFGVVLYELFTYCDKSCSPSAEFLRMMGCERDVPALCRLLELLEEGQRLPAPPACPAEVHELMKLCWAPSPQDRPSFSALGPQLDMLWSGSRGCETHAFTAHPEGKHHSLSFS
Excerpt: as §1, §2

JAK2 = biological target: T3, JAK2 (Homo sapiens, UniProt O60674); experiment: Competition binding assay, JAK2
T3 construct: made in house
Excerpt: as §1, §2

T3 sequence (O60674 whole entry): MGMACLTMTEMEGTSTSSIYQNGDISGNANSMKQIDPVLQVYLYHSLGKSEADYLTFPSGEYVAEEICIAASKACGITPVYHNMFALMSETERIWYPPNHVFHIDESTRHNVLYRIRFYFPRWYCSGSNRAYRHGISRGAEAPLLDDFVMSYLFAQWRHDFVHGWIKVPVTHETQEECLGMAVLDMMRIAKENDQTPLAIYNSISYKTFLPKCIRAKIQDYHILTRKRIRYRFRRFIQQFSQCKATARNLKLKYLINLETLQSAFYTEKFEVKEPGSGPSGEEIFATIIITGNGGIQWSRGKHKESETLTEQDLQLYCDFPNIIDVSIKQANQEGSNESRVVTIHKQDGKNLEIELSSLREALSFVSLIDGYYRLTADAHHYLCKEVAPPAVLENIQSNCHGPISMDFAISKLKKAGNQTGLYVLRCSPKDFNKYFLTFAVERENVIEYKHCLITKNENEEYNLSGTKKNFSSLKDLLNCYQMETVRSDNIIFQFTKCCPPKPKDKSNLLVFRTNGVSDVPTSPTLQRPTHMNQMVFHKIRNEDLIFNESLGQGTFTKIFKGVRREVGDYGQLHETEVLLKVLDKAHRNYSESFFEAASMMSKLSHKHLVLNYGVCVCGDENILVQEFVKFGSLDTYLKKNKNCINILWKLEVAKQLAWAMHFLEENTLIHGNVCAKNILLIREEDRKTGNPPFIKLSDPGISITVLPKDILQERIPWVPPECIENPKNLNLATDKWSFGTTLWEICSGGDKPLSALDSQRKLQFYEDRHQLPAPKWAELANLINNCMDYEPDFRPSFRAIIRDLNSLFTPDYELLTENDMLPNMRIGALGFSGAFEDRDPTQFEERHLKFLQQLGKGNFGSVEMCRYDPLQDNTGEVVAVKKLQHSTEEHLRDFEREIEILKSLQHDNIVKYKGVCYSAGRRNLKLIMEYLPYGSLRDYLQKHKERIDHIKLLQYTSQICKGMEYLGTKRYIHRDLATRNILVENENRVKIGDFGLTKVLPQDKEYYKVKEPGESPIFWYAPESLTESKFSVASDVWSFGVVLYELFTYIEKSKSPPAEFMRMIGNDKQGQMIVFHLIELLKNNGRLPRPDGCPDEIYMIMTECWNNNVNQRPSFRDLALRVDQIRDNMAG
T1 sequence (P29597 whole entry): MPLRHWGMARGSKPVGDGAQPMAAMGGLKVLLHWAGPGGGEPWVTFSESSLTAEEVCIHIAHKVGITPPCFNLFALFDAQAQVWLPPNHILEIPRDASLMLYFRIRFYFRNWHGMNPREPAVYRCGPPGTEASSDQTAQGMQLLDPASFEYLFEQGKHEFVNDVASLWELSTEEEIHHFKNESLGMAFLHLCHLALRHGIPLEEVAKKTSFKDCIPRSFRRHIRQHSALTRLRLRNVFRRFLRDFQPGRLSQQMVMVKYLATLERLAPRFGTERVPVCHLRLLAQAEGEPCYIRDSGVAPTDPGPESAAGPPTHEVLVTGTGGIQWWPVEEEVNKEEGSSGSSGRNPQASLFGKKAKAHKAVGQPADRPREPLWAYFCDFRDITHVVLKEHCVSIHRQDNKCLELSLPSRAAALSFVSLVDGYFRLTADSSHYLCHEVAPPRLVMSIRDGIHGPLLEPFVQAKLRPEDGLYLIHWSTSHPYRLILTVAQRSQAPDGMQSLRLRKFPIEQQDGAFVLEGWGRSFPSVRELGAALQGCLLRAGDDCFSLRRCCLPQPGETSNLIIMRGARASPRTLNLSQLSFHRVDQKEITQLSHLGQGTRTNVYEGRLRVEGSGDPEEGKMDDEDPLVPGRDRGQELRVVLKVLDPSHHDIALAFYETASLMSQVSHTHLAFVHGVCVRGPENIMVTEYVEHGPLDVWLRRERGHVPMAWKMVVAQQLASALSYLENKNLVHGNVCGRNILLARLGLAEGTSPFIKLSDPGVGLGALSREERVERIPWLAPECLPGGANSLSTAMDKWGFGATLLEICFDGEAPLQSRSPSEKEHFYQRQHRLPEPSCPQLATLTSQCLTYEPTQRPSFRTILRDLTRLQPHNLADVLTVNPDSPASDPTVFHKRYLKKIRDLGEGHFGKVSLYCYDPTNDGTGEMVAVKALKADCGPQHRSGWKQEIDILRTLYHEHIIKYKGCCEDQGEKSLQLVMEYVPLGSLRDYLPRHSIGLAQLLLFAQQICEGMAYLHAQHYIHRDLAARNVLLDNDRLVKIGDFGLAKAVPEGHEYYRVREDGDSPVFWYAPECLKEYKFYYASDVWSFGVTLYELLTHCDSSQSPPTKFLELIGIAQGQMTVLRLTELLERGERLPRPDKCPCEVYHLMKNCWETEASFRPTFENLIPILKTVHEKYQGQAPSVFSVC

Compound | IC50 ([1]; Homo sapiens) [nM] | Kd (TYK2) [nM] | S-Score: S(10) at 10 μM [2] | Kd (JAK3) [nM] | Kd (JAK2) [nM] | IC50 [1] [nM]
Cc1cc(Nc2nc(C(F)(F)c3ccc(F)cc3)nc3cc(C(C)(C)C)sc23)n[nH]1 [Example 30, 6-tert-butyl-2-(difluoro(4-fluorophenyl)methyl)-N-(5-methyl-1H-pyrazol-3-yl)thieno[3,2-d]pyrimidin-4-amine] | 100 to 500 | > 100 | A (A ≦ 0.3) | 10 to 100 | 1 to 10 | 
CC(C)(C)c1cc2nc(C(F)(F)c3ccc(F)cc3)nc(Nc3cc[nH]n3)c2s1 [Example 31, 6-tert-butyl-2-(difluoro(4-fluorophenyl)methyl)-N-(1H-pyrazol-3-yl)thieno[3,2-d]pyrimidin-4-amine] | 100 to 500 | > 100 | A (A ≦ 0.3) | > 100 | 1 to 10 | 
Cc1cc(Nc2nc(C(F)(F)c3ccc(F)cn3)nc3ccsc23)n[nH]1 [Example 33, 2-(difluoro(5-fluoropyridin-2-yl)methyl)-N-(5-methyl-1H-pyrazol-3-yl)thieno[3,2-d]pyrimidin-4-amine] | ≤ 100 | ≤ 10 | C (0.4 < C ≦ 0.5) | ≤ 10 | ≤ 1 | 
(4-(1H-pyrazol-3-ylamino)-7-methylthieno[3,2-d]pyrimidin-2-yl)(4-fluorophenyl)methanone [Example 24] |  | > 100 | A (A ≦ 0.3) | > 100 | 1 to 10 | > 500
